The record followed here is PubChem BioAssay AID180 (DTP/NCI, 2004).

The term T/C denotes the ratio of treated to control.

The structures appear in SMILES notation. Values joined by “and” are separate entries in the source; they are usually repeats but may differ in a detail not shown here. Equal entries are not always repeated.

The subject of this experiment is BDF1 mice, Adenocarcinoma 755 s.c., tumor weight T/C. In words: NCI In Vivo Anticancer Drug Screen. Data for tumor model Adenocarcinoma 755 (subcutaneous) in B6D2F1 (BDF1) mice. To be noted: endpoint: mean tumor weight, higher = larger tumour. The method, boiled down: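 Compound activity was tested in mice carrying transplanted tumors. Survival or tumor size was measured, and each value is the treated-group measurement divided by that of the vehicle-treated control group (T/C).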

Where [1] appears, read: dose: 30.0 mg/kg/injection, schedule: Q01DX011 (ip), vehicle: carboxymethylcellulose (CMC).

Regarding `Cc1ccc(N2CCN(CCCN3CCN(c4ccccc4Cl)CC3)CC2)cc1`, the T/C (dose: 6.0 mg/kg/injection, schedule: Q01DX011 (ip), vehicle: carboxymethylcellulose (CMC)) is 84 % of control; the T/C (dose: 11.0 mg/kg/injection, schedule: Q01DX011 (ip), vehicle: methylcellulose (MC)) was 29 % of control; the T/C (dose: 12.0 mg/kg/injection, schedule: Q01DX011 (ip), vehicle: carboxymethylcellulose (CMC)) was 64 % of control; the T/C (dose: 22.0 mg/kg/injection, schedule: Q01DX011 (ip), vehicle: methylcellulose (MC)) is 34 % of control; the T/C (dose: 22.5 mg/kg/injection, schedule: Q01DX011 (ip), vehicle: carboxymethylcellulose (CMC)) is 50 % of control and 55 % of control; the T/C (dose: 22.5 mg/kg/injection, schedule: Q01DX011 (ip), vehicle: other) was 93 % of control. Moreover, the T/C by setting is: (dose: 24.0 mg/kg/injection, schedule: Q01DX011 (ip), vehicle: carboxymethylcellulose (CMC)) 65 % of control; (dose: 45.0 mg/kg/injection, schedule: Q01DX011 (ip), vehicle: carboxymethylcellulose (CMC)) 50 % of control and 59 % of control; (dose: 45.0 mg/kg/injection, schedule: Q01DX011 (ip), vehicle: methylcellulose (MC)) 12 % of control; (dose: 45.0 mg/kg/injection, schedule: Q01DX011 (ip), vehicle: other) 69 % of control; (dose: 48.0 mg/kg/injection, schedule: Q01DX011 (ip), vehicle: carboxymethylcellulose (CMC)) 63 % of control; (dose: 90.0 mg/kg/injection, schedule: Q01DX011 (ip), vehicle: carboxymethylcellulose (CMC)) 43 % of control and 62 % of control. Further, the T/C (dose: 96.0 mg/kg/injection, schedule: Q01DX011 (ip), vehicle: carboxymethylcellulose (CMC)) is 43 % of control.
Take `c1ccc2cc(-c3cc4ccccc4s3)ccc2c1`: the T/C was 70 % of control (dose: 100.0 mg/kg/injection, schedule: Q01DX011 (ip), vehicle: saline); 59 % of control (dose: 200.0 mg/kg/injection, schedule: Q01DX011 (ip), vehicle: saline); 49 % of control (dose: 400.0 mg/kg/injection, schedule: Q01DX011 (ip), vehicle: saline); 42 % of control (dose: 800.0 mg/kg/injection, schedule: Q01DX011 (ip), vehicle: saline).
In the case of `CCc1c(Cl)nc(N)nc1Nc1ccc(Br)cc1`, the T/C was 118 % of control (dose: 31.0 mg/kg/injection, schedule: Q01DX011 (ip), vehicle: methylcellulose (MC)); 105 % of control (dose: 62.0 mg/kg/injection, schedule: Q01DX011 (ip), vehicle: methylcellulose (MC)); 106 % of control (dose: 125.0 mg/kg/injection, schedule: Q01DX011 (ip), vehicle: methylcellulose (MC)); 116 % of control (dose: 250.0 mg/kg/injection, schedule: Q01DX011 (ip), vehicle: methylcellulose (MC)).
For `CCCCCCCCSc1ncnc2c1ncn2CCCC`, the T/C was 92 % of control (dose: 93.0 mg/kg/injection, schedule: Q01DX011 (ip), vehicle: saline); 97 % of control (dose: 250.0 mg/kg/injection, schedule: Q01DX011 (ip), vehicle: saline); 77 % of control (dose: 375.0 mg/kg/injection, schedule: Q01DX011 (ip), vehicle: saline).
Take `Clc1ncnc2c1ncn2C1CCCCO1` (stereo not drawn): the T/C runs as follows: (dose: 31.0 mg/kg/injection, schedule: Q01DX011 (ip), vehicle: other) 72 % of control; (dose: 62.0 mg/kg/injection, schedule: Q01DX011 (ip), vehicle: other) 7 % of control.
Consider `Cn1c(N)c(C(=O)CCl)c(=O)n(C)c1=O`, for which, under setting [1], the T/C is 66 % of control.
With `Cc1ccc(CSc2nc(N)nc3c2ncn3C2OC(CO)C(O)C2O)cc1` (stereo not drawn), the T/C was 57 % of control (dose: 12.5 mg/kg/injection, schedule: Q01DX011 (ip), vehicle: methylcellulose (MC)); 60 % of control (dose: 25.0 mg/kg/injection, schedule: Q01DX011 (ip), vehicle: methylcellulose (MC)); 25 % of control and 41 % of control (dose: 50.0 mg/kg/injection, schedule: Q01DX011 (ip), vehicle: methylcellulose (MC)).
`CC1C[C@@H]2[C@H]([C@@H](O)C[C@@]3(C)[C@H]2CC[C@]3(O)C(=O)CF)[C@@]2(C)CCC(=O)C=C12` (stereo partly drawn): the T/C reads like this: (dose: 1.2 mg/kg/injection, schedule: Q01DX011 (sc), vehicle: steriod suspending solution) 108 % of control; (dose: 2.5 mg/kg/injection, schedule: Q01DX011 (sc), vehicle: steriod suspending solution) 92 % of control; (dose: 8.0 mg/kg/injection, schedule: Q01DX011 (sc), vehicle: steriod suspending solution) 82 % of control; (dose: 10.0 mg/kg/injection, schedule: Q01DX011 (sc), vehicle: steriod suspending solution) 35 % of control; (dose: 16.0 mg/kg/injection, schedule: Q01DX011 (sc), vehicle: steriod suspending solution) 75 % of control; (dose: 20.0 mg/kg/injection, schedule: Q01DX011 (sc), vehicle: steriod suspending solution) 30 % of control. For the same compound, the T/C (dose: 32.0 mg/kg/injection, schedule: Q01DX011 (sc), vehicle: steriod suspending solution) is 55 % of control; the T/C (dose: 40.0 mg/kg/injection, schedule: Q01DX011 (sc), vehicle: steriod suspending solution) was 13 % of control; the T/C (dose: 170.0 mg/kg/injection, schedule: Q01DX011 (sc), vehicle: steriod suspending solution) was 5 % of control and 10 % of control; the T/C (dose: 340.0 mg/kg/injection, schedule: Q01DX011 (sc), vehicle: steriod suspending solution) is 9 % of control and 13 % of control.
With `C1CN1c1nc(N2CC2)nc(N2CC2)n1`, the T/C is 90 % of control (dose: 0.03 mg/kg/injection, schedule: Q01DX011 (ip), vehicle: carboxymethylcellulose (CMC)); 80 % of control (dose: 0.05 mg/kg/injection, schedule: Q01DX011 (ip), vehicle: carboxymethylcellulose (CMC)); 36 % of control (dose: 0.1 mg/kg/injection, schedule: Q01DX011 (ip), vehicle: carboxymethylcellulose (CMC)); 65 % of control (dose: 0.1 mg/kg/injection, schedule: Q02DX011 (ip), vehicle: carboxymethylcellulose (CMC)); 49 % of control (dose: 0.2 mg/kg/injection, schedule: Q02DX011 (ip), vehicle: carboxymethylcellulose (CMC)); 8 % of control (dose: 0.5 mg/kg/injection, schedule: Q01DX011 (ip), vehicle: saline). Further, the T/C (dose: 49.0 micrograms/kg/injection, schedule: Q01DX011 (ip), vehicle: carboxymethylcellulose (CMC)) was 86 % of control; the T/C (dose: 67.0 micrograms/kg/injection, schedule: Q01DX011 (ip), vehicle: carboxymethylcellulose (CMC)) was 213 % of control; the T/C (dose: 98.0 micrograms/kg/injection, schedule: Q01DX011 (ip), vehicle: carboxymethylcellulose (CMC)) was 88 % of control; the T/C (dose: 134.0 micrograms/kg/injection, schedule: Q01DX011 (ip), vehicle: carboxymethylcellulose (CMC)) was 101 % of control; the T/C (dose: 150.0 micrograms/kg/injection, schedule: Q01DX011 (ip), vehicle: saline) was 63 % of control; the T/C (dose: 260.0 micrograms/kg/injection, schedule: Q01DX011 (ip), vehicle: carboxymethylcellulose (CMC)) was 57 % of control and 77 % of control. In addition, the T/C is, setting by setting: (dose: 268.0 micrograms/kg/injection, schedule: Q01DX011 (ip), vehicle: carboxymethylcellulose (CMC)) 82 % of control; (dose: 300.0 micrograms/kg/injection, schedule: Q01DX011 (ip), vehicle: saline) 33 % of control; (dose: 536.0 micrograms/kg/injection, schedule: Q01DX011 (ip), vehicle: carboxymethylcellulose (CMC)) 18 % of control; (dose: 600.0 micrograms/kg/injection, schedule: Q01DX011 (ip), vehicle: saline) 7 % of control.
As for `CC(C)Cn1cnc2c(SCc3ccccc3)nc(N)nc21`, the T/C is 62 % of control (dose: 37.5 mg/kg/injection, schedule: Q01DX011 (ip), vehicle: methylcellulose (MC)); 27 % of control (dose: 75.0 mg/kg/injection, schedule: Q01DX011 (ip), vehicle: methylcellulose (MC)); 20 % of control (dose: 150.0 mg/kg/injection, schedule: Q01DX011 (ip), vehicle: methylcellulose (MC)); 4 % of control (dose: 300.0 mg/kg/injection, schedule: Q01DX011 (ip), vehicle: methylcellulose (MC)).
`NS(=O)(=O)c1nc(Cl)c2[nH]cnc2n1`: the T/C reads like this: (dose: 25.0 mg/kg/injection, schedule: Q01DX011 (ip), vehicle: carboxymethylcellulose (CMC)) 116 % of control; (dose: 75.0 mg/kg/injection, schedule: Q01DX011 (ip), vehicle: carboxymethylcellulose (CMC)) 73 % of control; (dose: 225.0 mg/kg/injection, schedule: Q01DX011 (ip), vehicle: carboxymethylcellulose (CMC)) 69 % of control.
Consider `O=C(Nc1nc2c(ncn2C2CC(OC(=O)c3ccccc3)C(COC(=O)c3ccccc3)O2)c(=O)[nH]1)c1ccccc1` (stereo not drawn), for which the T/C reads like this: under setting [1], 103 % of control; (dose: 60.0 mg/kg/injection, schedule: Q01DX011 (ip), vehicle: carboxymethylcellulose (CMC)) 94 % of control; (dose: 120.0 mg/kg/injection, schedule: Q01DX011 (ip), vehicle: carboxymethylcellulose (CMC)) 113 % of control; (dose: 240.0 mg/kg/injection, schedule: Q01DX011 (ip), vehicle: carboxymethylcellulose (CMC)) 124 % of control.
Turning to `NCC(=O)Nc1ccc(O)cc1`, where the note is “dose: 200.0 mg/kg/injection, schedule: Q01DX011 (ip), vehicle: carboxymethylcellulose (CMC)”, the T/C was 22 % of control and 42 % of control.
